Like-named read-outs stand apart in the source and are kept apart here.
How the values were obtained:
[1] = tested on: human hepatocarcinoma cell line (SMMC-7721); experiment: MTT cytotoxic assay, SMMC-7721; format: cell-based; conditions: read-out: IC50 SMMC-7721
Description: (§1) The in vitro antiproliferative activity of DAA derivatives (1–5, 6a–k, 7a–k) were evaluated by MTT assay against human hepatocarcinoma cell line (SMMC-7721), human breast cancer cell line (MDA-MB-231), human cervical carcinoma cell line (HeLa), mouse colon cancer cell line (CT-26) and human normal hepatocyte cell line (QSG-7701). Nocodazole was co-assayed as the positive control and DMEM culture medium containing 0.1% DMSO was used as negative control. The results of the tested compounds expressed as IC50 values (concentration required to inhibit tumor cell proliferation by 50%) were presented in Table 1.
(§2) The human hepatocarcinoma cell line (SMMC-7721), human breast cancer cell line (MDA-MB-231), human cervical carcinoma cell line (HeLa), mouse colon cancer cell line (CT-26) and human normal hepatocyte cells (QSG-7701) used in this study were all obtained from Keygene Biotech., China. These cell lines were maintained in DMEM medium supplemented with 10% heat-inactivated fetal bovine serum in a humidified atmosphere of 5% CO2 at 37 °C.
(§3) The in vitro cytotoxic activities of the benzimidazole derivatives of dehydroabietic acid were evaluated against tested cell lines via the MTT colorimetric method. Briefly, different tumor cells were grown in DMEM medium supplemented with 10% fetal bovine serum, penicillin (100 U mL^−1), and streptomycin (50 μg mL^−1). Cells were harvested at log phase of growth and seeded in 96-well plates (100 μL per well at a density of 2 × 10^5 cells mL^−1). After 24 h incubation at 37 °C and 5% CO2 to allow cell attachment, cultures were exposed to various concentrations of the isolated compounds for 48 h. Finally, MTT solution (2.5 mg mL^−1 in PBS) was added (40 μL per well). Plates were further incubated for 4 h at 37 °C, and the formazan crystals formed were dissolved by adding 150 μL per well of DMSO. Absorption at 570 nm was measured with an ELISA plate reader. The results were expressed as IC50 values with standard deviations, which was defined as the concentration at which 50% survival of cells was discerned. Nocodazole was co-assayed as positive control.

[2] = tested on: human breast cancer cell line (MDA-MB-231); experiment: MTT cytotoxic assay, MDA-MB-231; format: cell-based; conditions: read-out: IC50 MDA-MB-231
Description: as §1, §2, §3

[3] = tested on: human cervical carcinoma cell line (HeLa); experiment: MTT cytotoxic assay, HeLa; format: cell-based; conditions: read-out: IC50 HeLa
Description: as §1, §2, §3

[4] = tested on: mouse colon cancer cell line (CT-26); experiment: MTT cytotoxic assay, CT-26; format: cell-based; conditions: read-out: IC50 CT-26
Description: as §1, §2, §3

[5] = tested on: human normal hepatocyte cell line (QSG-7701); experiment: MTT cytotoxic assay, QSG-7701; format: cell-based; conditions: QSG7701, 48 h exposure
Description: as §1, §2, §3

[6] = Homo sapiens, SMMC-7721, 48 h, MTT, 48 h exposure
[7] = Mus musculus, CT26, 48 h, MTT, 48 h exposure

Row | SMILES | IC50 [1, 6] [µM] | IC50 ([2]; MDA-MB-231, MTT, 48 h exposure) [µM] | IC50 ([3]; MTT, 48 h exposure) [µM] | IC50 [4, 7] [µM] | melting point [°C] | IC50 [5] [µM] | IC50 ([4]; MTT, 48 h exposure) [µM] | IC50 ([1]; MTT, 48 h exposure) [µM] | IC50 ([1]; Homo sapiens, SMMC-7721, 48 h) [µM] | IC50 ([2]; MDA-MB-231, 48 h) [µM] | IC50 ([3]; 48 h) [µM] | IC50 ([4]; Mus musculus, CT26, 48 h) [µM]
1 | COC(=O)[C@]1(C)CCC[C@]2(C)c3cc(-c4cc(OC)c(OC)c(OC)c4)c4nc(-c5ccc(C)cc5)[nH]c4c3CCC12 (some centres unmarked) [Compound 7b, Methyl 2′-(p-tolyl)-12-(3,4,5-trimethoxyphenyl)-13,14-imidazolyl-deisopropyl-dehydroabietate] | > 50 | > 50 | > 50 | 15.6 ± 1.57 | 133 to 135 | – | – | – | – | – | – | –
2 | COC(=O)[C@]1(C)CCC[C@]2(C)c3cc(Br)c4nc(-c5c[nH]c6ccccc56)[nH]c4c3CCC12 (some centres unmarked) [Compound 6k, Methyl 2′-(1H-indol-3-yl)-12-bromo-13,14-imidazolyl-deisopropyl-dehydroabietate] | – | 0.56 ± 0.13 | 0.98 ± 0.11 | – | 139 to 140 | 8.43 ± 1.06 | – | – | – | – | – | –
3 | COC(=O)[C@]1(C)CCC[C@]2(C)c3cc(-c4cc(OC)c(OC)c(OC)c4)c4nc(-c5ccc(OC)cc5)[nH]c4c3CCC12 (some centres unmarked) [Compound 7i, Methyl 2′-(4-methoxyphenyl)-12-(3,4,5-trimethoxyphenyl)-13,14-imidazolyl-deisopropyl-dehydroabietate] | > 50 | > 50 | > 50 | 23.5 ± 2.38 | 153 to 155 | – | – | – | – | – | – | –
4 | COC(=O)[C@]1(C)CCC[C@]2(C)c3cc(Br)c4nc(-c5ccccc5Cl)[nH]c4c3CCC12 (some centres unmarked) [Compound 6g, Methyl 2′-(2-chlorophenyl)-12-bromo-13,14-imidazolyl-deisopropyl-dehydroabietate] | 40.8 ± 3.32 | 19.2 ± 0.93 | > 50 | > 50 | 142 to 143 | – | – | – | – | – | – | –
5 | COC(=O)[C@]1(C)CCC[C@]2(C)c3cc(-c4cc(OC)c(OC)c(OC)c4)c4nc(-c5cccc(F)c5)[nH]c4c3CCC12 (some centres unmarked) [Compound 7d, Methyl 2′-(3-fluorophenyl)-12-(3,4,5-trimethoxyphenyl)-13,14-imidazolyl-deisopropyl-dehydroabietate] | > 50 | 6.42 ± 0.04 | 12.9 ± 1.26 | < 5 | 156 to 158 | > 50 | 2.7 ± 0.12 | – | – | – | – | –
6 | COC(=O)[C@]1(C)CCC[C@]2(C)c3cc(-c4cc(OC)c(OC)c(OC)c4)c4nc(-c5ccc6[nH]ccc6c5)[nH]c4c3CCC12 (some centres unmarked) [Compound 7j, Methyl 2′-(1H-indol-5-yl)-12-(3,4,5-trimethoxyphenyl)-13,14-imidazolyl-deisopropyl-dehydroabietate] | – | 0.83 ± 0.2 | 3.75 ± 0.78 | – | 189 to 191 | 12.8 ± 1.27 | – | – | – | – | – | –
7 | COC(=O)[C@]1(C)CCC[C@]2(C)c3cc(Br)c4nc(-c5ccc(OC)cc5)[nH]c4c3CCC12 (some centres unmarked) [Compound 6i, Methyl 2′-(4-methoxyphenyl)-12-bromo-13,14-imidazolyl-deisopropyl-dehydroabietate] | > 50 | > 50 | > 50 | 21.2 ± 2.23 | 140 to 142 | – | – | – | – | – | – | –
8 | COC(=O)[C@]1(C)CCC[C@]2(C)c3cc(-c4cc(OC)c(OC)c(OC)c4)c4nc(-c5ccc(F)cc5)[nH]c4c3CCC12 (some centres unmarked) [Compound 7c, Methyl 2′-(4-fluorophenyl)-12-(3,4,5-trimethoxyphenyl)-13,14-imidazolyl-deisopropyl-dehydroabietate] | < 5 | 0.69 ± 0.21 | 7.63 ± 1.03 | 8.95 ± 0.17 | 139 to 141 | 36.1 ± 2.32 | – | 3.29 ± 0.13 | – | – | – | –
9 | COC(=O)[C@]1(C)CCC[C@]2(C)c3cc(-c4cc(OC)c(OC)c(OC)c4)c4nc(-c5ccccc5F)[nH]c4c3CCC12 (some centres unmarked) [Compound 7e, Methyl 2′-(2-fluorophenyl)-12-(3,4,5-trimethoxyphenyl)-13,14-imidazolyl-deisopropyl-dehydroabietate] | > 50 | 18.2 ± 1.32 | 18.3 ± 2.98 | 10.4 ± 1.91 | 155 to 157 | – | – | – | – | – | – | –
10 | COC(=O)[C@]1(C)CCC[C@]2(C)c3cc(Br)c4nc(-c5ccc(F)cc5)[nH]c4c3CCC12 (some centres unmarked) [Compound 6c, Methyl 2′-(4-fluorophenyl)-12-bromo-13,14-imidazolyl-deisopropyl-dehydroabietate] | – | 18.2 ± 1.2 | 8.01 ± 0.76 | < 5 | 149 to 151 | > 50 | 2.82 ± 0.97 | – | – | – | – | –
11 | COC(=O)[C@]1(C)CCC[C@]2(C)c3ccc(C(C)C)cc3CCC12 (some centres unmarked) [Compound 2] | > 50 | > 50 | > 50 | > 50 | – | – | – | – | – | – | – | –
12 | COC(=O)[C@]1(C)CCC[C@]2(C)c3cc(-c4cc(OC)c(OC)c(OC)c4)c4nc(-c5c[nH]c6ccccc56)[nH]c4c3CCC12 (some centres unmarked) [Compound 7k, Methyl 2′-(1H-indol-3-yl)-12-(3,4,5-trimethoxyphenyl)-13,14-imidazolyl-deisopropyl-dehydroabietate] | – | 0.21 ± 0.02 | 5.86 ± 0.63 | – | 199 to 201 | 11.8 ± 2.12 | – | – | – | – | – | –
13 | COC(=O)Nc1nc2ccc(C(=O)c3cccs3)cc2[nH]1 [Nocodazole, nocodazole, reference compound] | 0.92 ± 0.07 | 0.76 ± 0.06 | 0.87 ± 0.05 | 1.37 ± 0.11 | – | 13.8 ± 1.08 | – | – | – | – | – | –
14 | COC(=O)[C@]1(C)CCC[C@]2(C)c3cc(Br)c([N+](=O)[O-])c([N+](=O)[O-])c3CCC12 (some centres unmarked) [Compound 4, methyl 12-bromo-13,14-dinitro-deisopropyldehydroabietate] | – | – | – | – | – | – | – | – | 31.8 ± 3.22 | 38.8 ± 2.15 | > 50 | 35.1 ± 3.87
15 | COC(=O)[C@]1(C)CCC[C@]2(C)c3cc(Br)c4nc(-c5ccccc5F)[nH]c4c3CCC12 (some centres unmarked) [Compound 6e, Methyl 2′-(2-fluorophenyl)-12-bromo-13,14-imidazolyl-deisopropyl-dehydroabietate] | 12.3 ± 2.46 | > 50 | > 50 | > 50 | 138 to 139 | – | – | – | – | – | – | –
16 | COC(=O)[C@]1(C)CCC[C@]2(C)c3cc(Br)c4nc(-c5ccc(Cl)cc5)[nH]c4c3CCC12 (some centres unmarked) [Compound 6f, Methyl 2′-(4-chlorophenyl)-12-bromo-13,14-imidazolyl-deisopropyl-dehydroabietate] | 16.5 ± 1.87 | 33.7 ± 4.7 | > 50 | > 50 | 139 to 141 | – | – | – | – | – | – | –
17 | COC(=O)[C@]1(C)CCC[C@]2(C)c3cc(Br)c(C(C)C)cc3CCC12 (some centres unmarked) [Compound 3] | > 50 | > 50 | > 50 | > 50 | – | – | – | – | – | – | – | –
18 | COC(=O)[C@]1(C)CCC[C@]2(C)c3cc(Br)c4nc(-c5ccc(C)cc5)[nH]c4c3CCC12 (some centres unmarked) [Compound 6b, Methyl 2′-(p-tolyl)-12-bromo-13,14-imidazolyl-deisopropyl-dehydroabietate] | > 50 | > 50 | > 50 | 25.3 ± 4.96 | 143 to 145 | – | – | – | – | – | – | –
19 | COC(=O)[C@]1(C)CCC[C@]2(C)c3cc(Br)c(N)c(N)c3CCC12 (some centres unmarked) [Compound 5] | > 50 | > 50 | 43.4 ± 2.81 | 38.5 ± 3.79 | – | – | – | – | – | – | – | –
20 | COC(=O)[C@]1(C)CCC[C@]2(C)c3cc(-c4cc(OC)c(OC)c(OC)c4)c4nc(-c5ccccc5Cl)[nH]c4c3CCC12 (some centres unmarked) [Compound 7g, Methyl 2′-(2-chlorophenyl)-12-(3,4,5-trimethoxyphenyl)-13,14-imidazolyl-deisopropyl-dehydroabietate] | > 50 | 15.7 ± 0.87 | > 50 | 13.4 ± 2.35 | 157 to 159 | – | – | – | – | – | – | –
21 | CC(C)c1ccc2c(c1)CC[C@H]1[C@](C)(C(=O)O)CCC[C@]21C [Compound 1, Dehydroabietic acid] | > 50 | > 50 | > 50 | > 50 | – | – | – | – | – | – | – | –
22 | COC(=O)[C@]1(C)CCC[C@]2(C)c3cc(Br)c4nc(-c5ccc(Br)cc5)[nH]c4c3CCC12 (some centres unmarked) [Compound 6h, Methyl 2′-(4-bromophenyl)-12-bromo-13,14-imidazolyl-deisopropyl-dehydroabietate] | 16.6 ± 1.4 | 35.3 ± 1.77 | > 50 | > 50 | 141 to 142 | – | – | – | – | – | – | –

— paper PMC9080489, “Synthesis and biological evaluation of 2-aryl-benzimidazole derivatives of dehydroabietic acid as novel tubulin polymerization inhibitors” (RSC Advances, 2018)
